# Measured values published in US5814470A, “Melittin-related polypeptides, mixture sets and libraries thereof” (priority 1997, dated 1998).
# Key:
# Staphylococcus aureus = settings: no change in optical density over 18 hours; slightly different conditions; cited from earlier work
# [1] = Polypeptide conformation by CD spectroscopy (α-helix content); format: physicochemical; settings: in the presence of 100 mM NaCl, 25° C.
# Method: The library of sets of Example 1 was examined for the ability of each set to adopt an α-helical conformation. […] In the presence of 100 mM NaCl, the percent of α-helices varied from 20 to 40 percent.
# All measurements were carried out on a Jasco J-720 circular dichroism spectropolarimeter (CD-Eaton, Md.), in conjunction with a Neslab RTE 110 waterbath and temperature controller at 25° C. (Dublin, Calif.). CD spectra were the average of a series of three to seven scans made at 0.2 nm intervals. Ellipticity was determined as means residue ellipticity, θ; the limits of error of measurements at 222 nm were ±500 (deg cm2 dmol^-1). For salt induced aggregation, stock solutions were separately prepared with 150 μM polypeptide sets in buffer (5 mM MOPS-NaOH, 100 mM NaCl).
# [2] = tested on: human red blood cells (RBCs); assay: Hemolytic activity (HD50); format: cell-based; settings: one hour at 37° C., OD 414 nm
# Method: The hemolytic activities of the polypeptide mixture sets were determined by using human red blood cells (RBCs). The cells were washed three times with phosphate-buffered saline (PBS/35 mM phosphate buffer--0.15M NaCl, pH 7.0) and resuspended in PBS. The hemolytic activity of the polypeptide sets were determined as described in Blondelle et al., Biochem. Biophys. Acta, 1202:331-336 (1993) using 96 well tissue culture plates. In brief, 100 μl of 0.5 percent RBC solution were added to an equal volume of peptides in PBS. The plates were incubated for one hour at 37° C. and the optical density (OD) of the supernatant was measured at 414 nm. The concentration in peptide necessary to lyse 50 percent RBCs (HD50) was then determined for each peptide using a sigmoidal curve fitting method (Graphpad).
substance,measurement,setting,value
Melittin,minimum inhibitory concentration (MIC),Staphylococcus aureus,25 µg/mL
same,percent of α-helices (helicity),[1],about 20%
same,HD50 (concentration necessary to lyse 50 percent RBCs),[2],6 µg/mL
